# Assay results reported in ChEMBL document CHEMBL5696443 (Clin Cancer Res, 2016).
# Activity calls are given as the source filed them. No cut-off for these calls is given here.
# Experiments:
# [1] = biological target: Eukaryotic elongation factor 2 kinase (Homo sapiens) (UniProt O00418); test: Inhibition of human EEF2K at 1 uM using RKKFGESEKTKTKEFL as substrate in presence of [gamma33P]-ATP by HotSpot assay relative to control
# [2] = biological target: Dual specificity mitogen-activated protein kinase kinase 2 (Homo sapiens) (UniProt P36507); test: Inhibition of human MAP2K2 at 1 uM using ERK2 as substrate in presence of [gamma33P]-ATP by HotSpot assay relative to control
# [3] = biological target: Tyrosine-protein kinase Fgr (Homo sapiens, UniProt P09769); test: Inhibition of human FGR using poly (Glu, Tyr)4:1 as substrate in presence of [gamma33P]-ATP by HotSpot assay
# [4] = biological target: Serine/threonine-protein kinase TAO2 (Homo sapiens) (UniProt Q9UL54); test: Inhibition of human TAOK2 at 1 uM using MBP as substrate in presence of [gamma33P]-ATP by HotSpot assay relative to control
# [5] = biological target: Inhibitor of nuclear factor kappa-B kinase subunit alpha (Homo sapiens) (UniProt O15111); test: Inhibition of human CHUK at 1 uM using KKKKERLLDDRHDSGLDSMKDEE as substrate in presence of [gamma33P]-ATP by HotSpot assay relative to control
# [6] = Average plasma concentration in CB-17/SCID mouse implanted with mouse BaF3 cells expressing EML4-ALK G1202R mutant at 25 mg/kg, po administered once daily for 7 days by LC-MS/MS analysis; format: ADME, organism-based; details: in vivo, 168 h, time 7 day
# [7] = biological target: Serine/threonine-protein kinase B-raf (Homo sapiens) (UniProt P15056); test: Inhibition of human BRAF at 1 uM using MEK1 as substrate in presence of [gamma33P]-ATP by HotSpot assay relative to control
# [8] = biological target: Homeodomain-interacting protein kinase 3 (Homo sapiens) (UniProt Q9H422); test: Inhibition of human HIPK3 at 1 uM using MBP as substrate in presence of [gamma33P]-ATP by HotSpot assay relative to control
# [9] = tested on: Epidermal growth factor receptor (Homo sapiens), P00533 [UNDEFINED MUTATION]; details: BaF3, time 72.0 hrs
# [10] = biological target: Ephrin type-A receptor 2 (Homo sapiens) (UniProt P29317); test: Inhibition of human EPHA2 at 1 uM using poly (Glu, Tyr)4:1 as substrate in presence of [gamma33P]-ATP by HotSpot assay relative to control
# [11] = biological target: Ephrin type-B receptor 4 (Homo sapiens) (UniProt P54760); test: Inhibition of human EPHB4 at 1 uM using poly (Glu, Tyr)4:1 as substrate in presence of [gamma33P]-ATP by HotSpot assay relative to control
# [12] = tested on: EML4-ALK (Homo sapiens), Q9UM73+Q9HC35 [G1202R]; details: BaF3, time 3-5 weeks
# [13] = biological target: Cyclin-dependent kinase 5/CDK5 activator 1 (Homo sapiens) (UniProt Q00535+Q15078); test: Inhibition of human CDK5/p35 at 1 uM using RB protein as substrate in presence of [gamma33P]-ATP by HotSpot assay relative to control; format: protein-complex assay
# [14] = biological target: Dual specificity protein kinase CLK1 (Homo sapiens, UniProt P49759); test: Inhibition of human CLK1 using MBP as substrate in presence of [gamma33P]-ATP by HotSpot assay
# [15] = tested on: BaF3; test: Antitumor activity against mouse BaF3 cells expressing EML4-ALK L1196M mutant implanted in mouse assessed as tumor regression at 50 mg/kg, po administered once daily and measured after 8 days relative to control; format: functional; details: time 8 day
# [16] = biological target: PAS domain-containing serine/threonine-protein kinase (Homo sapiens) (UniProt Q96RG2); test: Inhibition of human PASK at 1 uM using KKLNRTLSFAEPG as substrate in presence of [gamma33P]-ATP by HotSpot assay relative to control
# [17] = biological target: Dual specificity tyrosine-phosphorylation-regulated kinase 3 (Homo sapiens) (UniProt O43781); test: Inhibition of human DYRK3 at 1 uM using RRRFRPASPLRGPPK as substrate in presence of [gamma33P]-ATP by HotSpot assay relative to control
# [18] = tested on: EML4-ALK (Homo sapiens), Q9UM73+Q9HC35 [F1174V]; details: BaF3, dose 200.0 nmol/L, time 3-5 weeks
# [19] = biological target: Macrophage-stimulating protein receptor (Homo sapiens) (UniProt Q04912); test: Inhibition of human MST1R at 1 uM using KKSRGDYMTMQIG as substrate in presence of [gamma33P]-ATP by HotSpot assay relative to control
# [20] = biological target: Hepatocyte growth factor receptor (Homo sapiens, UniProt P08581); test: Inhibition of human MET at 1 uM using poly (Glu, Tyr)4:1 as substrate in presence of [gamma33P]-ATP by HotSpot assay relative to control
# [21] = biological target: Receptor tyrosine-protein kinase erbB-2 (Homo sapiens, UniProt P04626); test: Inhibition of human ERBB2 at 1 uM using poly (Glu, Tyr)4:1 as substrate in presence of [gamma33P]-ATP by HotSpot assay relative to control
# [22] = biological target: Mitogen-activated protein kinase 12 (Homo sapiens) (UniProt P53778); test: Inhibition of human P38gamma at 1 uM using MBP as substrate in presence of [gamma33P]-ATP by HotSpot assay relative to control
# [23] = biological target: Inhibitor of nuclear factor kappa-B kinase subunit beta (Homo sapiens) (UniProt O14920); test: Inhibition of human IKBKB at 1 uM using KKKKERLLDDRHDSGLDSMKDEE as substrate in presence of [gamma33P]-ATP by HotSpot assay relative to control
# [24] = biological target: Serine/threonine-protein kinase pim-2 (Homo sapiens) (UniProt Q9P1W9); test: Inhibition of human PIM2 at 1 uM using RSRHSSYPAGT as substrate in presence of [gamma33P]-ATP by HotSpot assay relative to control
# [25] = biological target: Serine/threonine-protein kinase Chk1 (Homo sapiens, UniProt O14757); test: Inhibition of human CHEK1 using KKKVSRSGLYRSPSMPENLNRPR as substrate in presence of [gamma33P]-ATP by HotSpot assay
# [26] = biological target: Serine/threonine-protein kinase SIK2 (Homo sapiens, UniProt Q9H0K1); test: Inhibition of human SIK2 using AMARAASAAALARRR as substrate in presence of [gamma33P]-ATP by HotSpot assay
# [27] = biological target: Dual specificity tyrosine-phosphorylation-regulated kinase 4 (Homo sapiens) (UniProt Q9NR20); test: Inhibition of human DYRK4 at 1 uM using RRRFRPASPLRGPPK as substrate in presence of [gamma33P]-ATP by HotSpot assay relative to control
# Sequence of Serine/threonine-protein kinase pim-2 (Homo sapiens) (Q9P1W9 whole entry, looked up): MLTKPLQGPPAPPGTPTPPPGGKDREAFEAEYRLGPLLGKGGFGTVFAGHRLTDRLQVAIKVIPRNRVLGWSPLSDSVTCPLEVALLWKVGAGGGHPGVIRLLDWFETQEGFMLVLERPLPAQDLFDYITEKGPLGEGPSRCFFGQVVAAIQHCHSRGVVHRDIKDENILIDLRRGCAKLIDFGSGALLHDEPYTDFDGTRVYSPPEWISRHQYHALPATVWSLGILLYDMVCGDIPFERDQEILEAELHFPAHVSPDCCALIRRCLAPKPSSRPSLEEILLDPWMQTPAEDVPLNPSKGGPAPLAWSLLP
# Sequence of Serine/threonine-protein kinase Chk1 (O14757 whole entry): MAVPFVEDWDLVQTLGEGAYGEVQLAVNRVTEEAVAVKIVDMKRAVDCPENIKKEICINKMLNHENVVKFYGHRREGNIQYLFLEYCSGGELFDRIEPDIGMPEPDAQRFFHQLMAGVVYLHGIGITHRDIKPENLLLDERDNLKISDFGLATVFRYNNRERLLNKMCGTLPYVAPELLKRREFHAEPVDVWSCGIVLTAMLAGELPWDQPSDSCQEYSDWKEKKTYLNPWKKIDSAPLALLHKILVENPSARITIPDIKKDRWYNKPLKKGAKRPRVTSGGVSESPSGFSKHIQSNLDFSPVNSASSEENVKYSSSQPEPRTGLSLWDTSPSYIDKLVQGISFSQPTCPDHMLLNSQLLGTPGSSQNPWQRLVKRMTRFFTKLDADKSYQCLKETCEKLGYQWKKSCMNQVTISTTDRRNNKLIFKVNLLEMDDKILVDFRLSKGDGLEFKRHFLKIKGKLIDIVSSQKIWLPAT
# Sequence of Tyrosine-protein kinase Fgr (P09769 whole entry): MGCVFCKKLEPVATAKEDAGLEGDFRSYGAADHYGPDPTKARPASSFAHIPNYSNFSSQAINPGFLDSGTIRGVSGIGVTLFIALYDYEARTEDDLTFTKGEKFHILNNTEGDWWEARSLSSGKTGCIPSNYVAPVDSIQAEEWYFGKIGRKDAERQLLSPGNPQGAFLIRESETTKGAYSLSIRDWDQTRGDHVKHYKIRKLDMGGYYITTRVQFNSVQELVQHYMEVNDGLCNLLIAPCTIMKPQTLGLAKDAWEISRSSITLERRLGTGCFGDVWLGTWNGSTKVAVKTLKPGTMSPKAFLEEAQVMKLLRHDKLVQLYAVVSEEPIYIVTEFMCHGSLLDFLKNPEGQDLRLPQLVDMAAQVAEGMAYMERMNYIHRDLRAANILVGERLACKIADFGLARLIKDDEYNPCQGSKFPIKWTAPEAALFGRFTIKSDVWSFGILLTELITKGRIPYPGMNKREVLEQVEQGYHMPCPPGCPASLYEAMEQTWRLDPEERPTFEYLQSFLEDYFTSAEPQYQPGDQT
# Sequence of Eukaryotic elongation factor 2 kinase (Homo sapiens) (O00418 whole entry): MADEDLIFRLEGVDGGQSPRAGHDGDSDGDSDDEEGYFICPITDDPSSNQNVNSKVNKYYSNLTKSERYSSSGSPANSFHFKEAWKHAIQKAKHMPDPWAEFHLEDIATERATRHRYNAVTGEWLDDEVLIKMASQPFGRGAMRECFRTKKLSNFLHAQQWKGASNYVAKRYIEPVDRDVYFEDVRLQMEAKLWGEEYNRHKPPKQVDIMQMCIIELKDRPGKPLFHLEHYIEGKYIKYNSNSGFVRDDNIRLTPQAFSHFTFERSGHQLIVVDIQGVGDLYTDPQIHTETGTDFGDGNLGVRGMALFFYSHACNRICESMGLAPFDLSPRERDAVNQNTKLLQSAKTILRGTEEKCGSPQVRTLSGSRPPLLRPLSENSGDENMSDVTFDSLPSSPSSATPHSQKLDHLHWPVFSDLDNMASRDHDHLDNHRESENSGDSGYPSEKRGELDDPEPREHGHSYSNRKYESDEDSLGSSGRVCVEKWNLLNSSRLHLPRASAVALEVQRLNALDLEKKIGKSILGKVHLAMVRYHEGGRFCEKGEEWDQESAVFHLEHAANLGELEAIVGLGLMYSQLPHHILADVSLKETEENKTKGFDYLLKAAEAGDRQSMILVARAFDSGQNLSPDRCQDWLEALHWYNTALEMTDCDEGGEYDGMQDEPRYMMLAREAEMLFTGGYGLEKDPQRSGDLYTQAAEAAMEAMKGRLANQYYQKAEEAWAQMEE
# Sequence of PAS domain-containing serine/threonine-protein kinase (Homo sapiens) (Q96RG2 whole entry, the tested form may be a part): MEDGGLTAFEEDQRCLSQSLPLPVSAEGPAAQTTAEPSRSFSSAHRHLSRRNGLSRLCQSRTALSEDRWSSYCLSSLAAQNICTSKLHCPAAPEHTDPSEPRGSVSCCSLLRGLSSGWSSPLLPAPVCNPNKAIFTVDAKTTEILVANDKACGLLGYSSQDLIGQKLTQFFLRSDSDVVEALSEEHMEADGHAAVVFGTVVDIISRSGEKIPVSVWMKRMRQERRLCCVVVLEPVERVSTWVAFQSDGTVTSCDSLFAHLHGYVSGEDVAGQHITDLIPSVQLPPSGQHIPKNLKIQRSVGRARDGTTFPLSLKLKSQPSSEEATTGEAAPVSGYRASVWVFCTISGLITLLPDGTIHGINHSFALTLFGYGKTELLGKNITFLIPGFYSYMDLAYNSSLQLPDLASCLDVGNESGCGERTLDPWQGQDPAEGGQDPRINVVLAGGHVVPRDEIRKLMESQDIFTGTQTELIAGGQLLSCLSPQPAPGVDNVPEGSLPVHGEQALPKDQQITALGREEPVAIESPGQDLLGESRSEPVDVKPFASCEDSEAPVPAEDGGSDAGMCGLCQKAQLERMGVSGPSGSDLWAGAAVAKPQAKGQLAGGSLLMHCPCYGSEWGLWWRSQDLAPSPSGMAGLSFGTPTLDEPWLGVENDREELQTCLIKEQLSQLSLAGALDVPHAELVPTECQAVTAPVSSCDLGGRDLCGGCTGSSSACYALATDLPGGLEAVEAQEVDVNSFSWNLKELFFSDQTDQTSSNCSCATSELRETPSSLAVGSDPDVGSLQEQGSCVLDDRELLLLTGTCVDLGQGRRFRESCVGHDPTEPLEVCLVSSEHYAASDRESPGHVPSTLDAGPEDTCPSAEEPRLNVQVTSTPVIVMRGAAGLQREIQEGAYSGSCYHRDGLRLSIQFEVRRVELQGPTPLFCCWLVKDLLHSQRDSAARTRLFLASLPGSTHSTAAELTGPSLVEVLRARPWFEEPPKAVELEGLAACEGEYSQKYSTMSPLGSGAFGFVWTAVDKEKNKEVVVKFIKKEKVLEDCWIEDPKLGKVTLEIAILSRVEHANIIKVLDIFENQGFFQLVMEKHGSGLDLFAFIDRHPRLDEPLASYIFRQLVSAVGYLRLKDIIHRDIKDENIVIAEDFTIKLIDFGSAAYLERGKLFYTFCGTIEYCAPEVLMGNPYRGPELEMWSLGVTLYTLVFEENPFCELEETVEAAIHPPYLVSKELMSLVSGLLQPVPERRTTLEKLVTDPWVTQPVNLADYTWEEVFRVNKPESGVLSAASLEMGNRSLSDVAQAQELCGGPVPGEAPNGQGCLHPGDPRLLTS
# Sequence of Mitogen-activated protein kinase 12 (Homo sapiens) (P53778 whole entry): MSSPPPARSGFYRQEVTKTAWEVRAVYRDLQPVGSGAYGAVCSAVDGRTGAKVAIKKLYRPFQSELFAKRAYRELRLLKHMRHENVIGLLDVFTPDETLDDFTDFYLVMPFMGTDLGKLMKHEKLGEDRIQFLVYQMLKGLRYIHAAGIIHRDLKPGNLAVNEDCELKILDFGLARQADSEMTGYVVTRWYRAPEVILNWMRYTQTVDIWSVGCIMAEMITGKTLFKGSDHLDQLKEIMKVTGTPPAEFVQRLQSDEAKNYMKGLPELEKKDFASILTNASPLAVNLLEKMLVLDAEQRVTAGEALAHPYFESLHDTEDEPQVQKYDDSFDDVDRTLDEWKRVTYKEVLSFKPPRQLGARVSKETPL
# Sequence of Inhibitor of nuclear factor kappa-B kinase subunit alpha (Homo sapiens) (O15111 whole entry): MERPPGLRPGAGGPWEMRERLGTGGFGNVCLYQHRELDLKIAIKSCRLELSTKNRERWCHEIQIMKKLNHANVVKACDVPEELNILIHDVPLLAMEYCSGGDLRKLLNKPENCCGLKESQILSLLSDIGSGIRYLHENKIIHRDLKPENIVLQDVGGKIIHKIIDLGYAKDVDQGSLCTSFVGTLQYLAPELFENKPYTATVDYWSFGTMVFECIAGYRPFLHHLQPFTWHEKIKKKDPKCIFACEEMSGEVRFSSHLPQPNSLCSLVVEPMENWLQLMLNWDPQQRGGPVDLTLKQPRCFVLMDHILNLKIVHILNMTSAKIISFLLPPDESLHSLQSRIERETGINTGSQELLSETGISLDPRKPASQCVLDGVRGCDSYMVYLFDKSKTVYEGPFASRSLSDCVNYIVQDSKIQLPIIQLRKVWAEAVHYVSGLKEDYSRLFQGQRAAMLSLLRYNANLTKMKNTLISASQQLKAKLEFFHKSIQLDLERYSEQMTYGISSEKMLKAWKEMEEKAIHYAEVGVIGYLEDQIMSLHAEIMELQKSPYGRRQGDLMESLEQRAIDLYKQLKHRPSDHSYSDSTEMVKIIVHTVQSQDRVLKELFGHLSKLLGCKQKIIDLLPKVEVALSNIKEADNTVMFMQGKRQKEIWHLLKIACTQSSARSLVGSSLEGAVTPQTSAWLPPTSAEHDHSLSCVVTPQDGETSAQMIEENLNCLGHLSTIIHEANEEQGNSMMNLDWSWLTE
# Sequence of Dual specificity protein kinase CLK1 (P49759 whole entry): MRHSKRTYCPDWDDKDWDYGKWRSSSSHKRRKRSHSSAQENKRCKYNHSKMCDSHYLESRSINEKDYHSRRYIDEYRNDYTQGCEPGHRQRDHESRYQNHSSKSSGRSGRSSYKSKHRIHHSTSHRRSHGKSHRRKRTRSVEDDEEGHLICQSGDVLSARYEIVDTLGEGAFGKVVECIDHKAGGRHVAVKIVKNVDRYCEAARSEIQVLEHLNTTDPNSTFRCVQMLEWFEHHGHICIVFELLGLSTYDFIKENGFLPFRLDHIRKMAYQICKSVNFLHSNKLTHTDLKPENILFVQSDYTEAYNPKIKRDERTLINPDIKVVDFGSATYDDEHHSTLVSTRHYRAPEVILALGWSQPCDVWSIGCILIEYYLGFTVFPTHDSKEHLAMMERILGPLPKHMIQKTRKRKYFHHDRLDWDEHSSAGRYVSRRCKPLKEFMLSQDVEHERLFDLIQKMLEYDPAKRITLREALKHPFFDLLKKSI
compound,measurement,setting,value
COc1cc(N2CCC(N3CCN(C)CC3)CC2)ccc1Nc1ncc(Cl)c(Nc2ccccc2P(C)(C)=O)n1 [BRIGATINIB],inhibition,[1],< 90%
same,inhibition,[2],< 90%
same,IC50,[3],492 nM
same,inhibition,[4],< 90%
same,inhibition,[5],< 90%
same,Cave,[6],2546 nM
same,inhibition,[7],< 90%
same,inhibition,[8],< 90%
same,IC90,[9],2460 nM
same,inhibition,[10],< 90%
same,inhibition,[11],< 90%
same,IC90,[12],762 nM
same,inhibition,[13],< 90%
same,IC50,[14],23 nM
same,Activity,[15],67%
same,inhibition,[16],< 90%
same,inhibition,[17],< 90%
same,inhibition,[18],inactive
same,inhibition,[19],< 90%
same,inhibition,[20],< 90%
same,inhibition,[21],< 90%
same,inhibition,[22],< 90%
same,inhibition,[23],< 90%
same,inhibition,[24],< 90%
same,IC50,[25],30 nM
same,IC50,[26],466 nM
same,inhibition,[27],< 90%
